Laboratory results as given in US8017374B2, “Processes for decolorization of colored effluents” (priority 2005, dated 2011).

Legend:
[1] = Decolorization using exopolymeric substance produced by NIOCC 2a; design: species or system unidentified marine fungus NIOCC #2a (MTCC 5159); settings: 24 hours, dyes 0.015-0.04%, 10 mg EPS, 60° C., phosphate buffer pH 6
Description: The process of decolorization of effluents using the exoploymeric substance (EPS) produced by the fungus is carried out using separated and freeze dried EPS. A known amount of EPS is incubated with appropriately diluted effluents for a period of 6 to 12 hours. The decolorization is monitored in the supernatant after centrifugation. While using the EPS, about 10 mg of EPS (dry weight) is contacted with 3 ml of effluent having the final concentration of 10%.
The exopolymeric substance (EPS) of the fungus NIOCC 2a was prepared as follows: 1 liter of a 12 day old culture filtrate was frozen for 12 to 24 hours and allowed to thaw. The EPS precipitated on thawing and was removed by decantation. Methanol at a final concentration of 70% was added to the supernatant to further precipitate the remaining EPS from the culture supernatant. The precipitated EPS was collected by centrifugation and the pooled precipitate was lyophilized. To 10 mg of this EPS, various dyes and effluents were added at concentrations as given in example 2 and incubated at 60° C. with phosphate buffer at pH 6. […]

[2] = system: NIOCC 2a; assay: Enhancement of laccase production by inducers; laccase activity in culture supernatant (ABTS); settings: for LACCASE ACTIVITY: dyes as inducers at 0.015-0.04%;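 for all read-outs here: supernatant laccase measured by 2 mM ABTS oxidation in 100 mM glycine-HCl buffer at pH 3, absorbance at 405 nm tracked over time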
Description: The laccase activity in the culture supernatant was measured using 2 mM ABTS prepared in 100 mM glycine-HCl buffer (pH 3) at 405 nm spectrophotometrically as a function of time.
In order to enhance the laccase production by MTCC 5159 various inducers were added to a 3 day old culture grown in B&K medium prepared in 25 ppt sea water having a pH of 7.0. The inducers such as p-anisidine, catechol, guaiacol, ferulic acid, vanillic acid, veratryl alcohol and 2,5 dimethyl aniline were used at a final concentration of 1 mM. […] The laccase activity in the culture supernatant was measured at an interval of 3 days up to 21 days as described in Example 1.
Dyes which are generally used for decolorization were also tested for their laccase induction properties. Trypan blue, aniline blue and remazol brilliant blue R at a final concentration of 0.04%, methylene blue, crystal violet, brilliant green and congo red at 0.02% and reactive orange 176 at 0.015% final concentration were added to B & K medium prepared in 25 ppt sea water having the pH of 7.0.

[3] = system: culture supernatant of NIOCC 2a; assay: Decolorization using culture supernatant of NIOCC 2a; format: biochemical, unidentified marine fungus NIOCC #2a (MTCC 5159); settings: dyes 0.02-0.04%, 60° C., pH 6.0, supernatant concentrated two-fold
Description: The process of decolorization of various dyes and effluents using the cell-free supernatant involves addition of filter sterilized culture supernatant of the said fungus grown in the presence of various dyes, inducers and dilute effluents. The decolorization of the effluents was monitored spectrophotometrically at appropriate wavelengths up to 12 hours. The uninoculated culture medium containing these dyes served as control.
NIOCC 2a was grown in B&K medium prepared in sea water of 25 ppt salinity (the pH of the medium being 7.0) for 6 days. It was supplemented with 1% textile effluent B on day 6. The culture supernatant on day 12 was collected and concentrated two-fold. The concentrated enzyme was incubated with various dyes used at concentrations as given in Example 2 and the effluents were used at 10% only. The decolorization was monitored at 6 and 12 hours by incubating the samples in a water bath at 60° C. and pH 6.0 The absorbance maxima specific to that particular dye/effluent was monitored for 6 to 12 hours.

[4] = system: fungus MTCC 5159; assay: Decolorization of dyes and effluents by growing fungus culture; format: cell-based, unidentified marine fungus NIOCC #2a (MTCC 5159); settings: FIG. 2a, up to day 6
Source text: Black liquor is dark brown in color and after decolorization by the fungus MTCC 5159, it turns light brown after 6 days. Similarly molasses spent wash is dark brown and turns straw color after 6 days. Textile effluents A, originally magenta in color was comparatively difficult to decolorize whereas Textile effluent B, originally bottle green in color was comparatively easy to decolorize to a light green color after 6 days. The process for the decolorization of various effluents utilizing the fungal biomass involves addition of sterilized, appropriately diluted effluents to a 6 day-old culture of NIOCC 2a growing in B&K medium. The degradation of effluents and various dyes is monitored spectrophotometrically by removing an aliquot of sample from these cultures and measuring changes in absorbance at appropriate wavelengths. The decolorization is measured every alternate day up to 6 days. […]
The fungus MTCC 5159 was tested for its ability to decolorize various dyes and effluents by monitoring the change in its specific absorbance maxima every alternate day over a period of 6 days after the dye/effluents were added. […] The extent of decolorization was recorded as residual color (in percentage). […] Effluents like textile effluent A, B, MSW and black liquor were also monitored at their absorbance maxima in B&K medium, at 505, 663, 663 and 317 nm respectively.

Row | Molecule | PERCENT DECOLORIZATION [1] [%] | LACCASE ACTIVITY ([2]; day 3) [UL^−1] | LACCASE ACTIVITY ([2]; day 6) [UL^−1] | LACCASE ACTIVITY ([2]; day 8) [UL^−1] | LACCASE ACTIVITY ([2]; day 10) [UL^−1] | LACCASE ACTIVITY ([2]; day 12) [UL^−1] | LACCASE ACTIVITY ([2]; day 14) [UL^−1] | LACCASE ACTIVITY ([2]; day 16) [UL^−1] | LACCASE ACTIVITY ([2]; day 18) [UL^−1] | PERCENT DECOLORIZATION ([3]; 6 hours) [%] | PERCENT DECOLORIZATION ([3]; 12 hours) [%] | PERCENT DECOLORIZATION ([1]; listed as Congo red) [%] | PERCENT DECOLORIZATION ([1]; listed as congo red) | comparison of dye degradation by the fungus culture, in words [4] | comparison of inducers of laccase production, in words [2]
1 | aniline blue | 75 | 12 | 67 | 21 | 825 | 1051 | 1166 | 1211 | 1048 | 55 | 40 |  |  |  | 
2 | Nc1c(S(=O)(=O)[O-])cc(Nc2cccc(S(=O)(=O)CCOS(=O)(=O)[O-])c2)c2c1C(=O)c1ccccc1C2=O.[Na+].[Na+] [RBBR, remazol brilliant blue R] | 100 | 3 | 43 | 0 | 0 | 0 | 0 | 0 | 0 | 67 | 46 |  |  |  | 
3 | CN(C)c1ccc2nc3ccc(=[N+](C)C)cc-3sc2c1 [Methylene Blue, methylene blue] |  |  |  |  |  |  |  |  |  | 3 | 5 |  |  |  | 
4 | Nc1c(/N=N/c2ccc(-c3ccc(/N=N/c4cc(S(=O)(=O)O)c5ccccc5c4N)cc3)cc2)cc(S(=O)(=O)O)c2ccccc12 [Congo Red, congo red] |  |  |  |  |  |  |  |  |  | 54 | 47 | 29 | not decolorized to these extents |  | 
5 | CN(C)c1ccc(C(=C2C=CC(=[N+](C)C)C=C2)c2ccc(N(C)C)cc2)cc1 [Crystal Violet, crystal violet] | 80 |  |  |  |  |  |  |  |  | 44 | 54 |  |  |  | 
6 | Reactive orange 176 [RO 176] | 100 | 21 | 8 | 335 | 949 | 904 | 1158 | 1108 | 1180 |  |  |  |  | least degraded | 
7 | O=S(=O)([O-])[O-].[Cu+2] [Copper sulphate] |  |  |  |  |  |  |  |  |  |  |  |  |  |  | best inducer
8 | Cc1cc(-c2ccc(/N=N/c3c(S(=O)(=O)O)cc4cc(S(=O)(=O)O)cc(N)c4c3O)c(C)c2)ccc1/N=N/c1c(S(=O)(=O)O)cc2cc(S(=O)(=O)O)cc(N)c2c1O [Trypan Blue, Trypan blue] | 79 |  |  |  |  |  |  |  |  | 22 | 25 |  |  |  | 
